The values below come from patent US20250051300A1, “GRAM-NEGATIVE SPECIFIC ANTIBIOTICS SPARING EFFECT ON GUT MICROBIOME” (THE BOARD OF TRUSTEES OF THE UNIVERSITY OF ILLINOIS, priority 2021, published 2025).

In brackets after ≈: the same amount, converted by molar mass. A value given as a limit tells only on which side of the number the result lay.

Data set [1] concerns Bacteroides cellulosilyticus. Description: MIC, gut commensal bacteria, micro-dilution broth. As to conditions: Bacteroides cellulosilyticus.
Data set [2] deals with Bifidobacterium longum. Nature of the data set: MIC, gut commensal bacteria, micro-dilution broth. As to conditions: Bifidobacterium longum, ATCCBAA999.
Data set [3] has as its system Morganella morganii. Nature of the data set: MIC, gut commensal bacteria, micro-dilution broth. As to conditions: ATCC25839.
The subject of data set [4] is Lactobacillus reuteri. Description: MIC, gut commensal bacteria, micro-dilution broth. As to conditions: Limosilactobacillus reuteri, ATCC23272.
The test system of data set [5] is Blautia producta. Nature of the data set: MIC, gut commensal bacteria, micro-dilution broth. The following applies: Blautia producta, ATCC27340.
In data set [6] the test system is Streptococcus parasanguinis. Nature of the data set: MIC, gut commensal bacteria, micro-dilution broth. The following applies: Streptococcus parasanguinis.
Data set [7] concerns Proteus mirabilis. Nature of the data set: MIC, gut commensal bacteria, micro-dilution broth. As to conditions: Proteus mirabilis, ATCC35659.
Data set [8] has as its system Bacteroides vulgatus. Nature of the data set: MIC, gut commensal bacteria, micro-dilution broth. As to conditions: Phocaeicola vulgatus.
For data set [9], the system named is Streptococcus salivarius. Nature of the data set: MIC, gut commensal bacteria, micro-dilution broth. The following applies: Streptococcus salivarius.
Data set [10] deals with Bacteroides fragilis. Description: MIC, gut commensal bacteria, micro-dilution broth. As to conditions: Bacteroides fragilis, ATCC25285.
The test system of data set [11] is Stenotrophomonas maltophilia. Description: MIC, gut commensal bacteria, micro-dilution broth. The following applies: Stenotrophomonas maltophilia, ATCC13637.
The subject of data set [12] is Enterococcus faecalis. Description: MIC, micro-dilution broth method (CLSI). In kind it is cell-based. The following applies: Enterococcus faecalis KLE 2341, BHI-ych; read-out: MIC.
Data set [13] relates to gut microbiome. Nature of the data set: Impact on murine fecal microbiome (16S rRNA sequencing). The following applies: oral gavage twice a day for three days; feces at days 0, 7, 10, 31.
Data set [14] has as its system Faecalibacterium prausnitzii. Nature of the data set: MIC, gut commensal bacteria, micro-dilution broth. As to conditions: Faecalibacterium prausnitzii, ATCC27768.

For the molecule `CCC[C@@H]1C[C@@H](C(=O)N[C@@H]([C@H]2O[C@H](SC)[C@H](O)[C@@H](O)[C@H]2O)[C@H](C)Cl)N(C)C1` [Clindamycin], the MIC in data set [1] is above 128 µg/mL; in data set [2], 0.5 µg/mL (≈ 1.18 µM); in [3] it was above 128 µg/mL; in data set [4] it was 0.25 µg/mL (≈ 0.588 µM); in data set [5], 1 µg/mL (≈ 2.35 µM); in data set [6], 0.06 µg/mL (≈ 0.141 µM). Further, the MIC in data set [7] came to 0.125 µg/mL (≈ 0.294 µM); in data set [8] it was 16 µg/mL (≈ 37.6 µM); in data set [9], 2 µg/mL (≈ 4.71 µM); in data set [10], 4 µg/mL (≈ 9.41 µM); in data set [11] it was 0.5 µg/mL (≈ 1.18 µM); in data set [12] it was 1 µg/mL (≈ 2.35 µM). Further, the MIC in [14] was 0.25 µg/mL (≈ 0.588 µM). Further, in data set [13], the “effect on gut microbiome taxonomic composition” value is “large decreases in the members of Bacilli and Bacteroidia”.
